Assay [1] has as its target T1, BACE2 (Homo sapiens, UniProt Q9Y5Z0).
T1 construct: BACE2 enzyme ectodomain (derived from plasmid “pET17b-T7-hu proBACE2”); T7 (N); made in house
T1 sequence (Q9Y5Z0 63-473 limits assumed): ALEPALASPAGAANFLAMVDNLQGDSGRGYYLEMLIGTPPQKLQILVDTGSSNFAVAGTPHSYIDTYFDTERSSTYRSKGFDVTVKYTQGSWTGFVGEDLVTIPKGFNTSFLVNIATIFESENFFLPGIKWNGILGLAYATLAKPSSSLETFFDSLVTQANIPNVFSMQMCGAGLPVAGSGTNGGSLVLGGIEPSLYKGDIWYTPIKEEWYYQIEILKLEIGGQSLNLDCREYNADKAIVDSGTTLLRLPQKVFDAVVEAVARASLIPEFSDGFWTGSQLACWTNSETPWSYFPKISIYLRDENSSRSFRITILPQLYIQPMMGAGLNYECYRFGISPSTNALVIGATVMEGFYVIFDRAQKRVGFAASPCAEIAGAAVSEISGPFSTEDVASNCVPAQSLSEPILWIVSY
The assay can be described thus: Assay A: binding studies using SPR based methods, immobilised BACE2. Particulars: CM5 chip, immobilised BACE2 enzyme ectodomain, acetate buffer pH 4.6, 4% DMSO.

Assay [2] deals with T2, BACE2 (Rattus norvegicus, UniProt Q6IE75).
T2 construct: endogenous cellular BACE2 in the Ins1e rat cell line; endogenous in cells; host or cells: INS-TMEM27 (INS1e-derived rat cell line with doxycycline-inducible full-length hTMEM27)
T2 sequence (Q6IE75 63-514): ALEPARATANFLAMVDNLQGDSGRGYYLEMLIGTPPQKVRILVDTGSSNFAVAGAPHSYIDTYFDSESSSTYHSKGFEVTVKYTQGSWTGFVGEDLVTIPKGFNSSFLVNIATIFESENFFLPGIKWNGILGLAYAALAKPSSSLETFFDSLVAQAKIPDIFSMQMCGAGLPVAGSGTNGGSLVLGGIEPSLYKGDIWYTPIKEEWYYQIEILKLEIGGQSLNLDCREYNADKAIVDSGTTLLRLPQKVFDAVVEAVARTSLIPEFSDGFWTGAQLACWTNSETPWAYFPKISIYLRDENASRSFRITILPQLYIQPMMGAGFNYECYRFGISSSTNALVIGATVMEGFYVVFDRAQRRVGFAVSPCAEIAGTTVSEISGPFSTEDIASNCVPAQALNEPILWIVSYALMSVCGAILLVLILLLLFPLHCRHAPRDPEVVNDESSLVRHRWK
As to the kind of experiment: Assay for BACE inhibition by measuring cellular TMEM27 cleavage.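 Note: inhibitor added 2 h before doxycycline-induced hTMEM27 expression, supernatant collected after further 46 h, endogenous BACE2 activity read as reduced TMEM27 shedding.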 Particulars: INS-TMEM27 (INS1e-derived) cells, ELISA of shed human TMEM27 in supernatant. The class given is cell-based.

Assay [3] has as its target T3, BACE1 (Homo sapiens, UniProt P56817). As to the kind of experiment: Cellular Abeta-lowering assay. Set-up: endogenous in cells; host or cells: HEK293 stably transfected with human APP695 wt. In kind it is cell-based. The conditions noted are these: HEK293 cells stably transfected with human APP wt (APP695), Aβ40 ELISA of supernatant after 18-20 hrs.
In assay [4] the target is T3, BACE1. As to the kind of experiment: Assay A: binding studies using SPR based methods, immobilised BACE1.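 Note: KD from a 1:1 kinetic fit (koff/kon) of real-time association and dissociation curves, or for fast binders from end-of-association equilibrium responses plotted against log concentration.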 Set-up: 6his-tagged full length BACE 1 expressed in SF9 cells; 6His; made in house; host or cells: SF9 insect cells. Particulars: CM5 chip, immobilised 6his-tagged full length BACE 1, acetate buffer pH 4.6, 4% DMSO.

17 compounds from patent publication US20130196984A1, “3-AMINO-5-PHENYL-56-DIHYDRO-2H-[1,4]OXAZINES” (Siena Biotech S.p.A., priority 2009, published 2013) can be followed below.

SMILES strings stand for the structures. Where a name gives a salt, the structure may show the parent alone.

T3 sequence (P56817 46-501): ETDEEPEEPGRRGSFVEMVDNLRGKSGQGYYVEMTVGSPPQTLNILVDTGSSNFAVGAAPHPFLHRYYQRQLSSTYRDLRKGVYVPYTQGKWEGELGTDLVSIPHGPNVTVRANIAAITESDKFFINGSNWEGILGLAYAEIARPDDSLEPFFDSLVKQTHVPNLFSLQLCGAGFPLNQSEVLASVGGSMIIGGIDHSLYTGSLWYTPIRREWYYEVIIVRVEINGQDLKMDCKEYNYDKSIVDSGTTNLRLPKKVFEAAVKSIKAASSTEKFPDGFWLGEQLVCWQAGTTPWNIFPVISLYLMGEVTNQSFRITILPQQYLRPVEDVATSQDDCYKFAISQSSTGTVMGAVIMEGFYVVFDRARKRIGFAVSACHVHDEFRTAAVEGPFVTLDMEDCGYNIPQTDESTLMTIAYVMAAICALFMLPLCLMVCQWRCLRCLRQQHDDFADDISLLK

As to `C[C@@]1(c2cc(NC(=O)c3ccc(Cl)cn3)ccc2F)CO[C@H](Cc2ccccc2)C(N)=N1` [Example 28, 5-Chloro-pyridine-2-carboxylic acid [3-((3R,6R)— and (3S,6)-5-amino-6-benzyl-3-methyl-3,6-dihydro-2H-[1,4]oxazin-3-yl)-4-fluoro-phenyl]-amide], the Kd in assay [1] is 11 nM; in assay [4], 71 nM. The results for the IC50 in assay [2] and in assay [3] were 58 nM and 19 nM, respectively.
As to `C[C@@]1(c2cc(NC(=O)c3ncc(Cl)cn3)ccc2F)COCC(N)=N1` [Example 35, 5-chloro-pyrimidine-2-carboxylic acid [3-((R)-5-amino-3-methyl-3,6-dihydro-2H-[1,4]oxazin-3-yl)-4-fluoro-phenyl]-amide], the Kd in assay [1] came to 4 nM; in assay [4] it was 28 nM. For the same compound, the IC50 in assay [2] is 16 nM; in assay [3], 15 nM.
For `C[C@@]1(c2cc(NC(=O)c3coc(C(F)(F)F)c3)ccc2F)COCC(N)=N1` [Example 36, 5-trifluoromethyl-furan-3-carboxylic acid [3-((R)-5-amino-3-methyl-3,6-dihydro-2H-[1,4]oxazin-3-yl)-4-fluoro-phenyl]-amide], in that order: 955 nM, 2260 nM, 120 nM and 550 nM.
With `C[C@@]1(c2cc(NC(=O)c3ncccc3F)ccc2F)COCC(N)=N1` [Example 37, 3-fluoro-pyridine-2-carboxylic acid [3-((R)-5-amino-3-methyl-3,6-dihydro-2H-[1,4]oxazin-3-yl)-4-fluoro-phenyl]-amide], the Kd in assay [1] was found to be 20 nM; in assay [4], 283 nM. Further, the figures for the IC50 in assay [2] and in assay [3] were 17 nM and 240 nM, respectively.
In the same order, the values of `C[C@@]1(c2cc(NC(=O)c3ncc(C(F)(F)F)cc3Cl)ccc2F)COCC(N)=N1` [Example 38, 3-chloro-5-trifluoromethyl-pyridine-2-carboxylic acid [3-((R)-5-amino-3-methyl-3,6-dihydro-2H-[1,4]oxazin-3-yl)-4-fluoro-phenyl]-amide] are 32 nM, 39 nM, 44 nM and 21 nM.
For `Cc1nc(C(=O)Nc2ccc(F)c([C@]3(C)COCC(N)=N3)c2)co1` [Example 39, 2-methyl-oxazole-4-carboxylic acid [3-((R)-5-amino-3-methyl-3,6-dihydro-2H-[1,4]oxazin-3-yl)-4-fluoro-phenyl]-amide], in that order: 8 nM, 45 nM, 130 nM and 28 nM.
For `C[C@@]1(c2cc(NC(=O)c3ccn(C(F)F)n3)ccc2F)COCC(N)=N1` [Example 40, 1-difluoromethyl-1H-pyrazole-3-carboxylic acid [3-((R)-5-amino-3-methyl-3,6-dihydro-2H-[1,4]oxazin-3-yl)-4-fluoro-phenyl]-amide], the Kd in assay [1] stood at 2 nM; in assay [4], 15 nM. For the same compound, the IC50 in assay [2] was determined as 2 nM; in assay [3], 13 nM.
`C[C@@]1(c2cc(NC(=O)c3ncc(F)cc3F)ccc2F)COCC(N)=N1` [Example 41, 3,5-difluoro-pyridine-2-carboxylic acid [3-((R)-5-amino-3-methyl-3,6-dihydro-2H-[1,4]oxazin-3-yl)-4-fluoro-phenyl]-amide]: the Kd in assay [1] amounted to 6 nM; in assay [4] it was 54 nM. The results for the IC50 in assay [2] and in assay [3] were 4 nM and 26 nM, respectively.
For `Cn1cc(Cl)c(C(=O)Nc2ccc(F)c([C@]3(C)COCC(N)=N3)c2)n1` [Example 43, 4-chloro-1-methyl-1H-pyrazole-3-carboxylic acid [3-((R)-5-amino-3-methyl-3,6-dihydro-2H-[1,4]oxazin-3-yl)-4-fluoro-phenyl]-amide], the Kd amounted to 5 nM in assay [1] and 85 nM in assay [4]. The IC50 stood at 13 nM in assay [2] and 79 nM in assay [3].
For `Cc1ccsc1C(=O)Nc1ccc(F)c([C@]2(C)COCC(N)=N2)c1` [Example 44, 3-methyl-thiophene-2-carboxylic acid [3-((R)-5-amino-3-methyl-3,6-dihydro-2H-[1,4]oxazin-3-yl)-4-fluoro-phenyl]-amide], in that order: 43 nM, 1820 nM, 310 nM and 470 nM.
For `C[C@@]1(c2cc(NC(=O)c3ncoc3-c3ccccc3)ccc2F)COCC(N)=N1` [Example 45, 5-phenyl-oxazole-4-carboxylic acid [3-((R)-5-amino-3-methyl-3,6-dihydro-2H-[1,4]oxazin-3-yl)-4-fluoro-phenyl]-amide], in that order: 3020 nM, 3940 nM, 620 nM and 760 nM.
For `C[C@@]1(c2cc(NC(=O)c3sccc3Cl)ccc2F)COCC(N)=N1` [Example 46, 3-chloro-thiophene-2-carboxylic acid [3-((R)-5-amino-3-methyl-3,6-dihydro-2H-[1,4]oxazin-3-yl)-4-fluoro-phenyl]-amide], in that order: 629 nM, 10800 nM, 720 nM and 1350 nM.
Take `C[C@@]1(c2cc(NC(=O)c3ncccc3OCC(F)(F)F)ccc2F)COCC(N)=N1` [Example 48, 3-(2,2,2-trifluoro-ethoxy)-pyridine-2-carboxylic acid [3-((R)-5-amino-3-methyl-3,6-dihydro-2H-[1,4]oxazin-3-yl)-4-fluoro-phenyl]-amide]: the Kd in assay [1] is 115 nM; in assay [4], 1200 nM. In addition, the IC50 was found to be 52 nM in assay [2] and 350 nM in assay [3].
In the same order, the values of `CC1(C)OCC(N)=N[C@]1(C)c1cc(NC(=O)c2ccc(Cl)cn2)ccc1F` [Example 49, 5-chloro-pyridine-2-carboxylic acid [3-((R)-5-amino-2,2,3-trimethyl-3,6-dihydro-2H-[1,4]oxazin-3-yl)-4-fluoro-phenyl]-amide] are 22 nM, 15 nM, 66 nM and 4 nM.
Turning to `CC1(C)OCC(N)=N[C@]1(C)c1cc(NC(=O)c2ccc(OCC(F)(F)F)cn2)ccc1F` [Example 50, 5-(2,2,2-trifluoro-ethoxy)-pyridine-2-carboxylic acid [3-((R)-5-amino-2,2,3-trimethyl-3,6-dihydro-2H-[1,4]oxazin-3-yl)-4-fluoro-phenyl]-amide], the values for the Kd in assay [1] and in assay [4] were 2100 nM and 900 nM, respectively. Also, the IC50 worked out at 1400 nM in assay [2] and 39 nM in assay [3].
For `CC1(C)OC[C@@](C)(c2cccc(NC(=O)c3ccc(Cl)cn3)c2)N=C1N` [Example 51, 5-chloro-pyridine-2-carboxylic acid [3-((R)-5-amino-3,6,6-trimethyl-3,6-dihydro-2H-[1,4]oxazin-3-yl)-phenyl]-amide], the Kd worked out at 2 nM in assay [1] and 22 nM in assay [4]. The half-inhibitory concentration (IC50) in assay [2] came out at 5 nM; in assay [3], 14 nM.
In the same order, the values of `C[C@@]1(c2cc(NC(=O)c3ccc(C#N)cn3)ccc2F)COCC(N)=N1` [Example 72, 5-cyano-pyridine-2-carboxylic acid [3-((R)-5-amino-3-methyl-3,6-dihydro-2H-[1,4]oxazin-3-yl)-4-fluoro-phenyl]-amide hydrochloride] are 25 nM, 16 nM, 39 nM and 3 nM.
